Experiments:
[1] = target: T1, human κ (CHO-KOR) opioid receptor (Homo sapiens, UniProt P41145); experiment: Radioligand binding assay, [3H]diprenorphine displacement, KOR; conditions: displacement of 0.2 nM [3H]diprenorphine, CHO-KOR membranes; mean ± standard error
T1 construct: expressed in transfected cells
In short: (§1)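 Membranes from C6 glioma cells stably expressing rat MOR or DOR, or CHO cells expressing human KOR (20 μg protein), were incubated with 0.2 nM [3H]diprenorphine and test peptide in 50 mM Tris-HCl pH 7.4 for 1 h at room temperature. Nonspecific binding defined with 10 μM naloxone; Ki from nonlinear regression.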

[2] = target: T1, human κ (CHO-KOR) opioid receptor; experiment: Stimulation of [35S]GTPγS binding, KOR; assay type: biochemical; conditions: for EC50 / EC50 (nm) KOR: [35S]GTPγS binding, CHO-KOR membranes, mean ± standard error; for Emax / % stimulation KOR: [35S]GTPγS maximal stimulation compared with 10 μM standard U-69,593
In short: (§2)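 Peptide-stimulated [35S]GTPγS (0.1 nM) binding, with 30 μM GDP, 5 mM MgCl2 and 100 mM NaCl at pH 7.4, was measured over 1 h at room temperature. Membranes came from rat MOR/DOR C6 or human KOR CHO cells. Filter-retained counts were expressed against 10 μM DAMGO, DPDPE or U69,593 respectively; maxima were fitted nonlinearly.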

[3] = target: T2, rat δ (C6-DOR) opioid receptor (Rattus norvegicus, UniProt P33533); experiment: Radioligand binding assay, [3H]diprenorphine displacement, DOR; conditions: displacement of 0.2 nM [3H]diprenorphine, C6-DOR membranes; mean ± standard error
T2 construct: expressed in transfected cells
T2 sequence (P33533 whole entry): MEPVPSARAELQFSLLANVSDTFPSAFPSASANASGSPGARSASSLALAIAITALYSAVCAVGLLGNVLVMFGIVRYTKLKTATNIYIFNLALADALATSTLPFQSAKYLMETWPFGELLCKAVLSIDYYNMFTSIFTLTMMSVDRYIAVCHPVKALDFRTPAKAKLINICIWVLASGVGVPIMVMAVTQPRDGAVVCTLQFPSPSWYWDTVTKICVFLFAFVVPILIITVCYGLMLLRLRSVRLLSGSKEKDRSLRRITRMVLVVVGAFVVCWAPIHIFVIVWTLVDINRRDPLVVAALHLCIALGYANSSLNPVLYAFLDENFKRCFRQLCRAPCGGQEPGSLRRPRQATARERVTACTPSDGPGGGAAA
In short: as §1

[4] = target: T3, rat μ (C6-MOR) opioid receptor (Rattus norvegicus, UniProt P33535); experiment: Radioligand binding assay, [3H]diprenorphine displacement, MOR; conditions: displacement of 0.2 nM [3H]diprenorphine, C6-MOR membranes; mean ± standard error
T3 construct: expressed in transfected cells
T3 sequence (P33535 whole entry): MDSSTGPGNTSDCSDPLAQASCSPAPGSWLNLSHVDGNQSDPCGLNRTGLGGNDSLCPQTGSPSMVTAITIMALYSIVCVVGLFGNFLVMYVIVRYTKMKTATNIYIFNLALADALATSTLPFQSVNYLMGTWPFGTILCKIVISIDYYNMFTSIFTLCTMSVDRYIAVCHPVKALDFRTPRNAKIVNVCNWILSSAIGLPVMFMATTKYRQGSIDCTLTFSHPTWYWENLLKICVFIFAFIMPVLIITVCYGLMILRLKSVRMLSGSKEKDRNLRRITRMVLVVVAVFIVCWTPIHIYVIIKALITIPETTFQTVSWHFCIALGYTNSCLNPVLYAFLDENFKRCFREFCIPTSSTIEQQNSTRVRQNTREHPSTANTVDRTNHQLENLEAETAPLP
In short: as §1

[5] = target: T3, rat μ (C6-MOR) opioid receptor; experiment: Stimulation of [35S]GTPγS binding, MOR; assay type: biochemical; conditions: for EC50: [35S]GTPγS binding, C6-MOR membranes, mean ± standard error; for Emax: [35S]GTPγS maximal stimulation compared with 10 μM standard DAMGO
In short: as §2

C57BL/6 mice = experiment: Antinociception, warm water tail withdrawal assay;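 on Antinociceptive activity: fully efficacious means no withdrawal up to the 20 s cutoff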; assay type: in vivo; conditions: mouse tail withdrawal; for Antinociceptive activity: 50° C. water bath, cutoff 20 s, ip; for Duration: duration of antinociceptive action, 50° C.
Experimental: In Vivo Pharmacology. Animals. Adult male C57BL/6 mice weighing between 20 and 30 g at 8-16 weeks old were used for the current experiments (obtained from Jackson Laboratories (Bar Harbor, Me.), Harlan (Indianapolis, Ind.), or bred in-house). Mice were group-housed and had free access to food and water at all times. Experiments were conducted in the housing room, which was maintained on a 12 h light/dark cycle (with lights on at 0700). Each mouse was used only once and experiments were conducted between 11 a.m. and 4 p.m. Studies were performed in accordance with the University of Michigan Committee on the Use and Care of Animals and the Guide for the Care and Use of Laboratory Animals (National Research Council, 2011 publication).
Antinociception. The antinociceptive effects of the compounds disclosed herein and morphine can be evaluated in the warm water tail withdrawal assay using a cumulative dosing procedure. To determine tail withdrawal latencies, each mouse was placed briefly into a plastic, cylindrical restrainer and 2-3 cm of the tail tip was placed into a water bath maintained at 50° C. The latency to withdraw the tail was recorded with a maximum cutoff time of 20 s. […] Each animal received an injection of saline (intraperitoneal, ip) and then 30 min later, the baseline withdrawal latencies were recorded and ranged between 3 and 6 s. Following baseline determinations, three increasing doses (1, 2.2, and 6.8 mg/kg) of 1(4R) were given at 30 min intervals to provide final doses of 1, 3.2, and 10 mg/kg. Thirty minutes after each injection, the tail withdrawal latency was measured as described above. To confirm that 1(4R) was acting at opioid receptors, the cumulative dose response was repeated over the doses 3.2, 10, and 32 mg/kg following a 30 min pretreatment with 1 mg/kg naltrexone (ip). To determine the time-course of antinociceptive action the tail-withdrawal test was performed at varying times following administration of morphine (10 mg/kg, ip) or 1(4R) (10 mg/kg, ip).

[6] = target: T2, rat δ (C6-DOR) opioid receptor; experiment: Stimulation of [35S]GTPγS binding, DOR; assay type: biochemical; conditions: for EC50 / EC50 (nm) DOR: [35S]GTPγS binding, C6-DOR membranes, mean ± standard error; for Emax / % stimulation DOR: [35S]GTPγS maximal stimulation compared with 10 μM standard DPDPE
In short: as §2

T1 sequence (P41145 whole entry): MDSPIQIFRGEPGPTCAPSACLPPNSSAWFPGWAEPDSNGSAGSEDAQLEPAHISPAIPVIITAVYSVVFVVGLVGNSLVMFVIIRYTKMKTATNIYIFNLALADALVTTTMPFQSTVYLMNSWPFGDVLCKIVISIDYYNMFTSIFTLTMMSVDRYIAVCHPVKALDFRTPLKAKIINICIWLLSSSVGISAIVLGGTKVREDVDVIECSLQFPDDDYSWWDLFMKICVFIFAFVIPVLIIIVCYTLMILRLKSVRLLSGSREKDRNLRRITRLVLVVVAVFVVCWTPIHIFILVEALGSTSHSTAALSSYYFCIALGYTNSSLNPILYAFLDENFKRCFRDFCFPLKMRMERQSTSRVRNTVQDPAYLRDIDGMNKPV

Cc1cc(O)cc(C)c1C[C@H](N)C(=O)N[C@@H]1CCNc2c(-c3ccoc3)cc(Cc3ccccc3)cc21 [Compound 1094]
Ki [1]: 27.9 ± 6.24 nM | EC50 [2]: 290 nM | Emax [2]: 29% | Ki [3]: 3.49 ± 0.55 nM | Ki [4]: 0.34 ± 0.08 nM | EC50 [5]: 9.77 ± 6.34 nM | Emax [5]: 103 ± 5% | Antinociceptive activity (C57BL/6 mice): Inactive | EC50 [6]: 74.9 ± 61.5 nM | Emax [6]: 36.7 ± 5.53%

Cc1cc(O)cc(C)c1C[C@H](N)C(=O)N[C@@H]1CCNc2c(CCc3ccccc3)cc(Cc3ccccc3)cc21 [Compound 1098]
Ki [1]: 27.5 ± 7.81 nM | EC50 (nm) KOR [2]: dns | % stimulation KOR [2]: dns | Ki [3]: 0.69 ± 0.03 nM | Ki [4]: 0.64 ± 0.34 nM | EC50 [5]: 44.4 ± 16.6 nM | Emax [5]: 78.4 ± 1.26% | Antinociceptive activity (C57BL/6 mice): Inactive | EC50 (nm) DOR [6]: dns | % stimulation DOR [6]: dns

Cc1cc(O)cc(C)c1C[C@H](N)C(=O)N[C@@H]1CCNc2c(CN3CCOCC3)cc(Cc3ccccc3)cc21 [Compound 1099]
Ki [1]: 19.4 ± 8.53 nM | EC50 (nm) KOR [2]: dns | % stimulation KOR [2]: dns | Ki [3]: 2.61 ± 0.79 nM | Ki [4]: 0.15 ± 0.04 nM | EC50 [5]: 1.84 ± 0.41 nM | Emax [5]: 96.1 ± 1.76% | Antinociceptive activity (C57BL/6 mice): Inactive | EC50 [6]: 172 ± 65.8 nM | Emax [6]: 29 ± 6.78%

CCCCc1cc(Cc2ccccc2)cc2c1NCC[C@H]2NC(=O)[C@@H](N)Cc1c(C)cc(O)cc1C [Compound 1126]
Ki [1]: 34.4 ± 4.7 nM | EC50 (nm) KOR [2]: dns | % stimulation KOR [2]: dns | Ki [3]: 3.55 ± 0.46 nM | Ki [4]: 0.75 ± 0.4 nM | EC50 [5]: 17.9 ± 5.83 nM | Emax [5]: 85 ± 2% | Duration (C57BL/6 mice): 150 min | Antinociceptive activity (C57BL/6 mice): Fully efficacious | EC50 [6]: 200 ± 77 nM | Emax [6]: 24.9 ± 4.43%

CCc1cc(Cc2ccccc2)cc2c1NCC[C@H]2NC(=O)[C@@H](N)Cc1c(C)cc(O)cc1C [Compound 1127]
Ki [1]: 44 nM | EC50 (nm) KOR [2]: dns | % stimulation KOR [2]: dns | Ki [3]: 4.6 nM | Ki [4]: 0.05 nM | EC50 [5]: 37 nM | Emax [5]: 75% | Duration (C57BL/6 mice): 60 min | Antinociceptive activity (C57BL/6 mice): Fully efficacious | EC50 [6]: 23 nM | Emax [6]: 48%

Cc1cc(O)cc(C)c1C[C@H](N)C(=O)N[C@@H]1CCNc2c(Br)cc(Cc3ccccc3)cc21 [Compound 1128]
Ki [1]: 27 nM | EC50 [2]: 300 nM | Emax [2]: 30% | Ki [3]: 2.2 nM | Ki [4]: 0.2 nM | EC50 [5]: 1.2 nM | Emax [5]: 73% | Antinociceptive activity (C57BL/6 mice): Inactive | EC50 [6]: 36 nM | Emax [6]: 69%

Cc1cc(O)cc(C)c1C[C@H](N)C(=O)N[C@@H]1CCNc2c1cc(Cc1ccccc1)cc2C(F)(F)F [Compound 1129]
Ki [1]: 21 nM | EC50 [2]: 600 nM | Emax [2]: 17% | Ki [3]: 3.7 nM | Ki [4]: 0.3 nM | EC50 [5]: 1.8 nM | Emax [5]: 70% | Antinociceptive activity (C57BL/6 mice): Inactive | EC50 [6]: 50 nM | Emax [6]: 42%

Cc1cc(O)cc(C)c1C[C@H](N)C(=O)N[C@@H]1CCNc2c(C(=O)O)cc(Cc3ccccc3)cc21 [Compound 1130]
Ki [1]: 700 nM | EC50 (nm) KOR [2]: dns | % stimulation KOR [2]: dns | Ki [3]: 2.3 nM | Ki [4]: 0.6 nM | EC50 [5]: 4 nM | Emax [5]: 60% | Antinociceptive activity (C57BL/6 mice): Inactive | EC50 (nm) DOR [6]: dns | % stimulation DOR [6]: dns

From US10519114B2, “Peptidomimetics and methods of using the same” (The Regents of the University of Michigan, priority 2016, dated 2019)
